The numbers were not newly measured in patent US6829374B2, “Methods for measuring iris color over time” (Glaucoma Research, Inc., priority 2001, dated 2004), which cites them from elsewhere.

This data set concerns iris color. The conditions noted are these: ocular medication, recent studies.

Consider `CC(C)OC(=O)CCC/C=C\C[C@@H]1[C@@H](CC[C@@H](O)CCc2ccccc2)[C@H](O)C[C@@H]1O` [latanoprost], for which the “change in iris color” value was “change in iris color”.

Regarding `CCCCCCCC(=O)CC[C@@H]1[C@@H](C/C=C\CCCC(=O)O)[C@@H](O)C[C@H]1O` [unoprostone], the “change in iris color” value is recorded as “change in iris color”.
